Laboratory results reported in patent publication US7153822B2, “Compositions and methods for modulating connexin hemichannels” (Wyeth, priority 2002, dated 2006).
Square brackets hold non-standard residues; d marks the D form. Peptide text beside a SMILES is read from it. dHyp = O=C(O)[C@H]1C[C@H](O)CN1

Columns and labels:
[1] = system: neonatal rat ventricular cardiomyocytes; details: cited from earlier work
connexin hemi-channels = test: calcein dye uptake in cardiomyocytes under stress buffer (Example 6); type: cell-based, rat
Procedure: 1. Methods Ventricular myocytes were isolated from neonate rats by trypsin digestion and plated onto collagen-coated cover slips. After four days the myocytes formed confluent and synchronously beating sheets of cells. To measure dye uptake, cells were incubated in buffer containing 200 μM calcein for 30 minutes at room temperature. Then coverslips were thoroughly washed with control buffer and mounted in an open bath chamber and superfused with control buffer (RT). Cells were excited with 480 nm light by means of a Xenon lamp and a monochromator. Images of the fluorescence emitted at 510 nm were collected by a cooled CCD camera (Sensicam). Excitation control and image acquisition was controlled using Imaging workbench (Axon).
Under light microscopy three regions were placed over cardiomyocytes in an image. Then average fluorescence intensity was measured, and the procedure was repeated until 30 regions in 10 images had been measured. The average of these measurements were used as value for the given experimental condition, that is n=1. In each series one control incubation was performed and all experimental values are given as relative to this value.
(§1) Solutions: Control buffer (in mM): NaCl 136, KCl 4, MgCl2 0.8, CaCl2 1.8 HEPES 5, MES 5, Glucose 6, pH 7.3 Stress buffer (in mM): NaCl 136, KCl 8, MgCl2 0.8, CaCl2 1.8 HEPES 5, MES 5, Deoxy-glucose 10, pH 6.2

[2] = system: human osteoblast cultures; details: dye transfer after Lucifer Yellow injection; cited from earlier work
Ventricular myocytes = test: volume measurements in cardiomyocytes during metabolic inhibition; type: cell-based, rat; details: 0.1 nM in stress medium, six experiments (stress alone 1.06±0.02, control 0.94±0.04)
Procedure: 1. Methods: Ventricular myocytes were isolated from neonate rats by trypsin digestion and plated onto collagen-coated cover slips. After four days the myocytes formed confluent and synchronously beating sheets of cells. To measure cell volume cells were loaded with calcein-AM (5 μM in control buffer) for 15 minutes at 37° C. and the cover slips mounted in an open bath chamber. The following experiments were performed at room temperature. Using a Leica laser confocal microscope, an optical cross-section was performed every 20 seconds throughout the duration of the experiments.
The optical cross-sections were analyzed using Metamorph (Universal Imaging). The area of the cell was determined as the area of pixels with fluorescence intensities higher than a threshold value chosen to minimize background induced fluctuations. Data are presented as relative volumes by dividing each value by the average area under control conditions (the last measurement before metabolic stress).
as §1

[3] = system: osteoblastic rat osteosarcoma cell lines; details: dye transfer after Lucifer Yellow injection; cited from earlier work
[4] = system: rats subjected to myocardial infarction; test: myocardial infarction by LAD ligation in rats, three weeks of treatment; type: in vivo, rat
Procedure: Male Lewis rats (300–350 g; M&B, L1. Skendsved, Denmark) were anaesthetized with a neurolept anaesthesic combination (Hypnorm® (fentanyl citrate 0.315 mg/ml and fluanisone 10 mg/ml)+midazolam (5 mg/ml)). Commercial solution of midazolam was diluted 1:2 in distilled water. Three parts of the diluted midazolam is mixed with one part hypnorm®. Anesthesia was induced by s.c. administration of 0.2 ml of this solution per 100 gram rat. When surgical anesthesia was established, an endotracheal cannula is inserted and the animal is artificially ventilated using a Harvard rodent ventilator adjusted to maintain arterial pH at 7.3–7.5 during surgery.
Doses used are shown below in Table I:
Three weeks after ligation of LAD, the rats were anesthetized with an i.p, injection of pentobarbital (50 mg/kg). The animals were placed on a heating blanket in order to maintain body temperature at 37° C. Tracheotomy was performed and the rat was ventilated with oxygen using a Harvard rodent ventilator. The ventilator was adjusted to maintain arterial pH at 7.35–7.45. PE50 catheters were placed in the femoral vein and artery for i.v. administration and arterial pressure measurements, respectively. After insertion of the femoral i.v. catheter, the animal was paralysed by i.v. administration of pancuronium, 1 mg/kg. Anaesthesia and respiratory paralysis is maintained by continuous i.v. infusion of pentobarbital (2.5 mg/kg/h) and pancuronium (1 mg/kg/h) delivered in isotonic saline (50 μl/min). A tygon catheter was inserted into the left ventricle via the right carotid artery for determination of left ventricular end-diastolic pressure. After recording of left ventricular end-diastolic pressure (LVEDP), The hearts are removed from the bodies by cutting the veins and arteries a few mm from the hearts. […]
Using a microscope with a stage that can be moved in predetermined steps, both Masson-trichrome stained slides were examined and the number of points hitting fibrous tissue (blue stained in Masson-trichrome) and normal tissue are counted. […] Infarct size was calculated as % fibrous tissue in the heart.

the receptor = test: in situ binding and animal studies
Procedure: Compounds used in this example were made using standard solid phase Fmoc chemistry. See the prior examples. Identification was performed by mass spectrometry, and the purity, determined by RP-HPLC. […] Initial studies with compound 1 in 1 nM, 10 nM, 50 nM and 100 nM will determine whether studies with the following peptides compound 3 (H-GAG-4-Hyp-PY-NH2) and compound 4 (H-GNY-NH2) are conducted. These studies will also determine whether studies involving specific kinase inhibitors are conducted.

SMILES: CC(=O)N[C@H](Cc1ccc(O)cc1)C(=O)N1CCC[C@@H]1C(=O)N1C[C@@H](O)C[C@@H]1C(=O)NCC(=O)N[C@H](C)C(=O)NCC(N)=O [Compound 1, Ac-D-Tyr-D-Pro-D-4Hyp-Gly-D-Ala-Gly-NH2] (Ac-[dY][dP][dHyp]G[dA]G-NH2)
- noradrenalin-induced PI turnover, level relative to normal ([1]; during oxygen and glucose deprivation (untreated app. 50%)): ~90 % of the normal level
- noradrenalin-induced level of PI turnover ([1]; normal atmospheric and nutritional conditions): does not alter
- EC50 (connexin hemi-channels; 0.1 pM to 10 nM, sigmoidal function, read-out: ED50 for reduction of stress-induced calcein uptake): 3.3 ± 5.3 pM
- average fluorescence intensity during maximal inhibition, above control (connexin hemi-channels; stress buffer (stress alone 36.2±4.18% higher)): 6.9±1.7 % above control
- effect on uptake of calcein (connexin hemi-channels; stress, 0.1 pM to 10 nM): dose-dependently reduced the uptake of calcein
- reversal of hypoxia-induced decrease of calcium wave propagation [2]: completely reversed
- average relative volume during stress (Ventricular myocytes): 0.93±0.05
- reversal of hypoxia-induced decrease of calcium wave propagation [3]: completely reversed
- left ventricular end-diastolic pressure ([4]; either dose, three weeks): reduced left ventricular end-diastolic pressure
- heart weight-body weight ratio ([4]; rats, three weeks after MI): reduced by the two highest doses
- reduction of infarct size relative to vehicle treated MI rats ([4]; treatment for three weeks): 20–50%
- binding to the receptor (the receptor): nano-molar range
